Columns and labels:
Sprague-Dawley rats [1] = experiment: Mild hyperuricemia model: 2% oxonic acid on normal salt diet (Example 1); assay type: in vivo, rat
Protocol: All studies utilized adult male Sprague-Dawley rats (Simonsen Laboratories, Gilroy Calif.)(200-250 g).
Rats were placed on a normal salt (NaCl 0.26%) diet with or without 2% oxonic acid (Ziegler Bros, Gardners, Pa.) added to the diet and rats were sacrificed at week 7.
Am J Physiol 268:F1164-76, 1995].
(§1) Am J Clin Pathol 1957; 28:152.]. Serum blood urea nitrogen was measured by a standard kit (Sigma, St Louis, Mo.).
(§2) Renal biopsies were fixed in Methyl-Carnoy's, 10% formalin or 100% ethanol and embedded in paraffin. The presence of uric acid crystals was evaluated by staining 4-μm ethanol-fixed sections with de Galantha and modified Von Kossa stains. Kidney tissue from rats with acute uric acid nephropathy, induced with oxonic acid and uric acid administration was used as a positive control [Stavric, B., Johnson, W. J., and Grice, H. C., Uric acid nephropathy: An experimental model, Proc. Soc. Exp. Biol. Med. 130: 512-16 (1969).]. Light microscopy was performed in 4-μm sections of Methyl-Carnoy's fixed tissue stained with periodic acid Schiff (PAS) reagent or with hematoxylin and eosin.

Sprague-Dawley rats [2] = experiment: Renal findings at 11 weeks: immunohistochemistry and BUN (Example 3); assay type: in vivo, rat
Protocol: Rats were placed on the low sodium diet with oxonic acid for 7 weeks, and then were matched based on uric acid level and blood pressure in various groups to either receive allopurinol, have the oxonic acid withdrawn from the diet, or continue the oxonic acid/low salt diet. A control group of six rats were placed on the lowsodium diet alone for 11 weeks. All of these rats were sacrificed at week 11.
as §1, §2
Methyl-Carnoy's fixed tissue sections were analyzed by indirect immunoperoxidase [Lombardi, D., Gordon , K. L., Polinsky, P., Suga, S., Schwartz, S. M., and Johnson, R. J. Salt sensitive hypertension develops after transient exposure to angiotensin II. Hypertension 33:1013-1019, 1999] staining with the following primary antibodies: OP199, a goat polyclonal antibody against osteopontin (OPN)(gift of C. Giachelli, Univ of Wash., Seattle); ED-1, a monoclonal antibody to rat monocytes and macrophages (Serotec); goat antihuman type III collagen (Southern Biotechnology Associates Inc, Birminghan Ala.); and anti-renin, a mouse antibody to human renin (Sanofi Recherche, Montpellier, France). Sections were incubated with a secondary antibody followed by horseradish peroxidase-conjugated avidin D (Vector Laboratories, Burlingame, Calif.), diaminobenzidine (Sigma) with or without nickel chloride as a chromogen, and counsterstained with methyl green.
NOS1 was detected on formalin fixed tissue sections with a rabbit anti-rat neuronal nitric oxide synthase (Transduction Laboratories, Lexington, Ky.), followed by a biotinylated secondary antibody, diaminobenzidine with nickel chloride and counterstained with nuclear fast red.
All quantification was performed blinded. The tubular expression of osteopontin (OPN), which is a sensitive marker of tubulointerstitial injury, was calculated as the percent of renal cortex occupied by OPN-positive tubules [Lombardi, D., Gordon, K. L., Polinsky, P., Suga, S., Schwartz, S. M., and Johnson, R. J. Salt sensitive hypertension develops after transient exposure to angiotensin II. Hypertension 33:1013-1019, 1999]. Utilizing computer-assisted image analysis software (Optimas V6.2, Media Cybernetics, Silver Springs, Md.) and digitized images, the percent of area occupied by OPN positive tubules per 4 mm^2 field at a magnification of 50× was measured and the mean percent area calculated for each biopsy. The interstitial deposition of collagen type III was calculated as the % of renal cortex occupied by collagen III, noted by immunostaining, by computer image analysis. The mean number of interstitial macrophages (ED-1+cells) in each biopsy was calculated in a blinded manner by counting the total number of positive interstitial cortical cells in 20 sequentially selected 0.25 mm^2 grids at 200× magnification. Renin expression was quantified by the number of glomeruli with positive staining for juxtaglomerular renin using a minimum of 100 glomeruli in each biopsy as previously described [Eng, E., et al., Renal proliferation and phenotypic changes in rats with two-kidney, one-clip Goldblatt hypertension. […]

O=C(O)c1nc(=O)[nH]c(=O)[nH]1 [oxonic acid]
body weight at the end of the study (Sprague-Dawley rats [1]; 2% oxonic acid diet, normal salt diet, 7 weeks, control 394±18): 367.6 ± 17 g | urinary uric acid (Sprague-Dawley rats [1]; 2% oxonic acid in the diet): increased two-fold | special stains for uric acid crystals in kidney (Sprague-Dawley rats [1]; 2% oxonic acid, 7 weeks): negative | BUN (Sprague-Dawley rats [2]; OA withdrawal at 7 weeks): 18.8 ± 0.8 mg/dL | ED-1 (macrophages) (Sprague-Dawley rats [2]; OA withdrawal at 7 weeks): 33.0 ± 1.6 cells/mm2 | NOS-1 (Sprague-Dawley rats [2]; OA withdrawal at 7 weeks): 83.1 ± 10.8 positive cells/100 glomeruli | OPN (Sprague-Dawley rats [2]; OA withdrawal at 7 weeks): 1.08 ± 0.06 % increase | Renin (Sprague-Dawley rats [2]; OA withdrawal at 7 weeks): 50.5 ± 2.1 % positive JGA | Type III collagen (Sprague-Dawley rats [2]; OA withdrawal at 7 weeks): 8.9 ± 1.6 % | OPN (Sprague-Dawley rats [2]; low NaCl diet, allopurinol added at 7 weeks, control 0.7 ± 0.08): 1.33 ± 0.14 % increase | Type III collagen (Sprague-Dawley rats [2]; low NaCl diet, allopurinol added at 7 weeks, control 7.2 ± 0.6): 13.9 ± 0.6 % | BUN (Sprague-Dawley rats [2]; low NaCl diet, allopurinol added at 7 weeks, control 16.6 ± 0.9): 24.1 ± 1.7 mg/dL | ED-1 (macrophages) (Sprague-Dawley rats [2]; low NaCl diet, allopurinol added at 7 weeks, control 27.8 ± 1.4): 36.5 ± 1.4 cells/mm2 | Renin (Sprague-Dawley rats [2]; low NaCl diet, allopurinol added at 7 weeks, control 41.0 ± 1.9): 58.4 ± 0.8 % positive JGA | NOS-1 (Sprague-Dawley rats [2]; low NaCl diet, allopurinol added at 7 weeks, control 104.4 ± 11.5): 65.6 ± 7.1 positive cells/100 glomeruli

Reference: patent US7799794B2, “Treatment for cardiovascular disease” (Merck Sharp & Dohme Corp., priority 2000, dated 2010)
